Values joined by “and” are separate entries in the source; they are usually repeats but may differ in a detail not shown here. Equal entries are not always repeated.
System: SCPJU
Test: Example I postemergence foliar-applied, greenhouse, direct seeded rice weeds
Format: in vivo, Schoenoplectus juncoides (Roxb.) Palla
How it was run: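 Read-out is visual percent injury or growth inhibition (0 = none, 100 = complete kill) versus untreated plants about 3 weeks after treatment, with Colby's equation giving expected activity of two-way mixtures. Applications used a track sprayer at 187 L/ha in 1.25% (v/v) crop oil concentrate. Plants were at the first to fourth true leaf stage.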

Compound	Visual Weed Control (%) - 20 DAA SCPJU Obs (4.38 gae/ha)	Visual Weed Control (%) - 22 DAA SCPJU Obs (4.38 gae/ha)	Visual Weed Control (%) - 20 DAA SCPJU Obs (8.75 gae/ha)	Visual Weed Control (%) - 20 DAA SCPJU Obs (8 gae/ha)	Visual Weed Control (%) - 21 DAA SCPJU Obs (8 gae/ha)	Visual Weed Control (%) - 20 DAA SCPJU Obs (16 gae/ha)
COc1c(Cl)ccc(-c2nc(C(=O)O)c(Cl)c(N)c2F)c1F [Compound A Acid, 4-amino-3-chloro-6-(4-chloro-2-fluoro-3-methoxyphenyl)-5-fluoropyridine-2-carboxylic acid]	60% and 70%	60%	95%			
COc1c(Cl)ccc(-c2nc(C(=O)OCc3ccccc3)c(Cl)c(N)c2F)c1F [Compound A Benzyl Ester, benzyl ester of 4-amino-3-chloro-5-fluoro-6-(4-chloro-2-fluoro-3-methoxy-phenyl)pyridine-2-carboxylic acid]	30%		60%	70%	85%	85%

From patent US9232796B2, “Herbicidal compositions comprising 4-amino-3-chloro-5-fluoro-6-(4-chloro-2-fluoro-3-methoxyphenyl) pyridine-2-carboxylic acid or a derivative thereof and acetyl-CoA carboxylase (ACCase) inhibitors” (DOW AGROSCIENCES LLC, priority 2012, dated 2016)
